According to ChEMBL document CHEMBL1157538, “Discovery of a potent, selective, and orally bioavailable c-Met inhibitor: 1-(2-hydroxy-2-methylpropyl)-N-(5-(7-methoxyquinolin-4-yloxy)pyridin-2-yl)-5-methyl-3-oxo-2-phenyl-2,3-dihydro-1H-pyrazole-4-carboxamide (AMG 458)” (J Med Chem, 2008):

Columns and labels:
[1] = Volume of distribution at steady state in Beagle dog at 1 mg/kg, iv or 10 mg/kg, po; assay type: ADME, organism-based, Canis lupus familiaris; settings: in vivo, read-out: Vdss
[2] = Terminal half life in Sprague-Dawley rat; assay type: ADME, organism-based; settings: in vivo, read-out: beta t1/2
[3] = Inhibition c-Met […] mutant
[4] = Half life in Beagle dog at 1 mg/kg, iv or 10 mg/kg, po; assay type: ADME, organism-based, Canis lupus familiaris; settings: in vivo
[5] = target: Tyrosine-protein kinase Fgr (Homo sapiens, UniProt P09769); assay: Inhibition of FGR
[6] = Volume of distribution at steady state in BALB/c mouse at 1 mg/kg, iv or 10 mg/kg, po; assay type: ADME, organism-based; settings: in vivo, read-out: Vdss
[7] = Oral bioavailability in cynomolgus monkey at 10 mg/kg; assay type: ADME, organism-based, Macaca fascicularis; settings: in vivo
[8] = Oral bioavailability in BALB/c mouse at 10 mg/kg; assay type: ADME, organism-based; settings: in vivo
[9] = Inhibition of Aurora1
[10] = Antitumor activity in human U87MG cells xenografted orally dosed CD1 NU/NU mouse assessed as tumor growth inhibition after 14 days; assay type: functional, U-87MG ATCC; settings: U-87 MG, po, 336 h
[11] = target: Hepatocyte growth factor receptor (Homo sapiens, UniProt P08581, Y1230H); assay: Inhibition c-Met Y1230H mutant by HTRF assay
[12] = Inhibition of PDGF
[13] = Volume of distribution at steady state in Sprague-Dawley rat at 1 mg/kg, iv or 10 mg/kg, po; assay type: ADME, organism-based; settings: in vivo
[14] = target: Tyrosine-protein kinase Fes/Fps (Homo sapiens, UniProt P07332); assay: Inhibition of FES
[15] = target: T1, Hepatocyte growth factor receptor (Homo sapiens, UniProt P08581); assay: Inhibition of HGF-mediated c-Met phosphorylation in human PC3 cells; assay type: cell-based, PC-3
Mus musculus [16] = assay: Toxicity in human U87MG cells xenografted CD1 NU/NU mouse assessed as effect on body weight at 30 mg/kg and 100 mg/kg, qd for 14 days; assay type: organism-based, U-87MG ATCC; settings: in vivo, 336 h
[17] = Oral bioavailability in Beagle dog at 10 mg/kg; assay type: ADME, organism-based, Canis lupus familiaris; settings: in vivo
[18] = Permeability from apical to basolateral side of human Caco-2 cell monolayer; assay type: ADME, cell-based; settings: read-out: permeability
[19] = target: T2, Receptor-type tyrosine-protein kinase FLT3 (Homo sapiens, UniProt P36888); assay: Inhibition of FLT3
T2 sequence (P36888 whole entry): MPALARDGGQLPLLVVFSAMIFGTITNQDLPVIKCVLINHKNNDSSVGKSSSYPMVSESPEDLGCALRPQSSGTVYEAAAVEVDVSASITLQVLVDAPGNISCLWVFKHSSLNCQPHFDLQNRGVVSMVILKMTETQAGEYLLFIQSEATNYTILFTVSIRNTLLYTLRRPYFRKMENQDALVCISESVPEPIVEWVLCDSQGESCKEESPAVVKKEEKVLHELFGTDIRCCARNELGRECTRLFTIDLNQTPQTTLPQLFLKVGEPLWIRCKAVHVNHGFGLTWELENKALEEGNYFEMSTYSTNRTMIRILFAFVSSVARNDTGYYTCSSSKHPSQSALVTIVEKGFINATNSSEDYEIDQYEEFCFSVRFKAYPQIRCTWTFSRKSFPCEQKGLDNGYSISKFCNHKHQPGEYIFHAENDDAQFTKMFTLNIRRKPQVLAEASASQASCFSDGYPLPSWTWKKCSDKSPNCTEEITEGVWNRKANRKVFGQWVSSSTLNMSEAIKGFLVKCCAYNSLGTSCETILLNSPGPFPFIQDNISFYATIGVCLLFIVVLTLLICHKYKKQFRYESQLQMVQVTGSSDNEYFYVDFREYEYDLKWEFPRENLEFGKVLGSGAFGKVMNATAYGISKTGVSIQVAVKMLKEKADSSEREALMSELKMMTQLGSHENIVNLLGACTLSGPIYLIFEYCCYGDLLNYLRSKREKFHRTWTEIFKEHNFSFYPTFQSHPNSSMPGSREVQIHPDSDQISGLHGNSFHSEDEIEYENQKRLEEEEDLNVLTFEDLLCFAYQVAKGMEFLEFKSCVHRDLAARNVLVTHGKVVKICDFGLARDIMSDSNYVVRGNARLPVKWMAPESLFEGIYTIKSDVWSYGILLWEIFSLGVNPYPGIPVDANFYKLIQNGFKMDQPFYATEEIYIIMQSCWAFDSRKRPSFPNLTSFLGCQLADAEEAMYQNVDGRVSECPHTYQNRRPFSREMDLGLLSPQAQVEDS

[20] = target: Hepatocyte growth factor receptor (Homo sapiens, UniProt P08581, H1094R); assay: Inhibition c-Met H1094R mutant by HTRF assay
[21] = Half life in Sprague-Dawley rat at 1 mg/kg, iv or 10 mg/kg, po; assay type: ADME, organism-based; settings: in vivo
[22] = target: Tyrosine-protein kinase Lyn (Homo sapiens, UniProt P07948); assay: Inhibition of Lyn
[23] = Intrinsic clearance in cynomolgus monkey liver microsome; assay type: ADME, Macaca fascicularis; settings: liver microsomes
[24] = Intrinsic clearance in human liver microsome; assay type: ADME; settings: liver microsomes
[25] = Clearance in Beagle dog at 1 mg/kg, iv or 10 mg/kg, po; assay type: ADME, organism-based, Canis lupus familiaris; settings: in vivo
[26] = target: Tyrosine-protein kinase Blk (Homo sapiens, UniProt P51451); assay: Inhibition of BLK
[27] = Clearance in cynomolgus monkey at 1 mg/kg, iv or 10 mg/kg, po; assay type: ADME, organism-based, Macaca fascicularis; settings: in vivo
[28] = Half life in cynomolgus monkey at 1 mg/kg, iv or 10 mg/kg, po; assay type: ADME, organism-based, Macaca fascicularis; settings: in vivo
[29] = target: Hepatocyte growth factor receptor (Homo sapiens, UniProt P08581, D1228H); assay: Inhibition c-Met D1228H mutant by HTRF assay
[30] = target: Macrophage colony-stimulating factor 1 receptor (Homo sapiens, UniProt P07333)
[31] = Half life in BALB/c mouse at 1 mg/kg, iv or 10 mg/kg, po; assay type: ADME, organism-based; settings: in vivo
[32] = Inhibition of RON
[33] = Intrinsic clearance in BALB/c mouse liver microsome; assay type: ADME; settings: liver microsomes
[34] = Oral bioavailability in Sprague-Dawley rat at 10 mg/kg; assay type: ADME, organism-based; settings: in vivo
[35] = target: T3, Tyrosine-protein kinase ITK/TSK (Homo sapiens, UniProt Q08881); assay: Inhibition of ITK
T3 sequence (Q08881 whole entry): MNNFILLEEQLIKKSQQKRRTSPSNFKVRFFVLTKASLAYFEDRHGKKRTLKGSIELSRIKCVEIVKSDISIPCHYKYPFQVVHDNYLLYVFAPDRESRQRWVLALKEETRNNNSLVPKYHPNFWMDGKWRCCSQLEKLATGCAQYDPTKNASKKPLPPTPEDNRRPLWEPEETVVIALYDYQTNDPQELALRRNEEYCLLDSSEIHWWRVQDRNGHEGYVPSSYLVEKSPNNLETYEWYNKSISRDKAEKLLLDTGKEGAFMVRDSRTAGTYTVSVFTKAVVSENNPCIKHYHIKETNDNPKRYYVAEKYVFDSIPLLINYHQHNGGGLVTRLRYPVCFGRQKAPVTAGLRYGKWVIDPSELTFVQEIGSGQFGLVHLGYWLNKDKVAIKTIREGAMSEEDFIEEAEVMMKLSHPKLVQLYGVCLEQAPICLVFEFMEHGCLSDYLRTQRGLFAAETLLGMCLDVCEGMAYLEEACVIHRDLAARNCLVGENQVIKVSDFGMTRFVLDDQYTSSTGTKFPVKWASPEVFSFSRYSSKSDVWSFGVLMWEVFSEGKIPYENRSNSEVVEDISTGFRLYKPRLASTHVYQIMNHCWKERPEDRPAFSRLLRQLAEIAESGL

[36] = Terminal half life in BALB/c mouse; assay type: ADME, organism-based; settings: in vivo, read-out: beta t1/2
Mus musculus [37] = assay: Toxicity in human U87MG cells xenografted CD1 NU/NU mouse assessed as effect on body weight at 30 mg/kg BID for 14 days; assay type: organism-based, U-87MG ATCC; set-up: dose 30 mg/kg; settings: in vivo, 336 h
[38] = Intrinsic clearance in Beagle dog liver microsome; assay type: ADME, Canis lupus familiaris; settings: liver microsomes
[39] = Intrinsic clearance in Sprague-Dawley rat liver microsome; assay type: ADME; settings: liver microsomes
[40] = Apparent permeability across pig LLC-PK1 cells; assay type: ADME, cell-based, Sus scrofa; settings: read-out: permeability
[41] = target: Hepatocyte growth factor receptor (Homo sapiens, UniProt P08581, M1250T); assay: Inhibition c-Met M1250T mutant by HTRF assay
[42] = Drug level in po dosed BALB/c mouse plasma after 6 hrs; assay type: ADME, organism-based
[43] = target: Tyrosine-protein kinase CSK (Homo sapiens, UniProt P41240); assay: Inhibition of CSK
[44] = target: T4, Cytoplasmic tyrosine-protein kinase BMX (Homo sapiens, UniProt P51813); assay: Inhibition of BMX
T4 sequence (P51813 whole entry): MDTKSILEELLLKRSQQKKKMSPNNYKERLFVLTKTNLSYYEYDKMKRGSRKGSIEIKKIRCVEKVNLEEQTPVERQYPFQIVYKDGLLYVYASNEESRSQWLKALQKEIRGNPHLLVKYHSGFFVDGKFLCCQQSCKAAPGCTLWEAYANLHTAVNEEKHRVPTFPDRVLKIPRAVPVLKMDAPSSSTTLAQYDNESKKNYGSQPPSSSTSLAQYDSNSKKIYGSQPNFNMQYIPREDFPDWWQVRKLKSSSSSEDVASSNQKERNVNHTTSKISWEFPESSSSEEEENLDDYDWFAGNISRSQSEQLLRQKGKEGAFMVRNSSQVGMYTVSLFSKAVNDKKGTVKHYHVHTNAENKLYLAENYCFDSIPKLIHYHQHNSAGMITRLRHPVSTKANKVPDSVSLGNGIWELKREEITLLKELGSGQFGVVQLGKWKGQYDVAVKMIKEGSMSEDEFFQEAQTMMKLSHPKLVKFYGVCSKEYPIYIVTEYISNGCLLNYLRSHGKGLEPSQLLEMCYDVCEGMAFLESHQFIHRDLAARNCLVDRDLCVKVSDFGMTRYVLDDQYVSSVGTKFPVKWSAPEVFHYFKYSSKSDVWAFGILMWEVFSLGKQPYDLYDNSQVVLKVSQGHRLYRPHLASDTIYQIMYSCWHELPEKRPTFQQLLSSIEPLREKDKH

NIH3T3 = assay: Antitumor activity in TPR-Met expressing […] NIH3T3 cells xenografted in po dosed mouse assessed as tumor growth inhibition after 24 hrs; assay type: functional
[45] = target: T5, Hepatocyte growth factor receptor (Mus musculus, UniProt P16056); assay: Inhibition of HGF-mediated c-Met phosphorylation in mouse CT26 cells; assay type: cell-based
[46] = Clearance in Sprague-Dawley rat at 1 mg/kg, iv or 10 mg/kg, po; assay type: ADME, organism-based; settings: in vivo
[47] = Volume of distribution at steady state in cynomolgus monkey at 1 mg/kg, iv or 10 mg/kg, po; assay type: ADME, organism-based, Macaca fascicularis; settings: in vivo, read-out: Vdss
Mus musculus [48] = assay: Inhibition of HGF-mediated c-Met phosphorylation in po dosed BALB/c mouse liver after 6 hrs; assay type: functional
[49] = target: T1, Hepatocyte growth factor receptor; assay: Inhibition of human c-Met by HTRF assay
[50] = Clearance in BALB/c mouse at 1 mg/kg, iv or 10 mg/kg, po; assay type: ADME, organism-based; settings: in vivo
[51] = target: T5, Hepatocyte growth factor receptor; assay: Inhibition of mouse c-Met by HTRF assay

SMILES: COc1ccc2c(Oc3ccc(NC(=O)c4c(C)n(CC(C)(C)O)n(-c5ccccc5)c4=O)nc3)ccnc2c1
- Vd [1]: 0.75 L/kg
- half-life [2]: < 120 min
- Ki [3]: 1.1 nM
- half-life [4]: 168 min
- IC50 [5]: 328 nM
- Vd [6]: 0.31 L/kg
- bioavailability [7]: 78%
- bioavailability [8]: 100%
- IC50 [9]: 280 nM
- ED50 [10]: 16 mg/kg
- ED90 [10]: 59 mg/kg
- Ki [11]: 4.5 nM
- IC50 [12]: 120 nM
- Vd [13]: 0.62 L/kg
- IC50 [14]: 706 nM
- IC50 [15]: 60 nM
- Activity (Mus musculus [16]): Non-toxic
- bioavailability [17]: 100%
- Papp A→B [18]: 32 ×10⁻⁶ cm/s
- IC50 [19]: 391 nM
- Ki [20]: 0.5 nM
- half-life [21]: 60 min
- IC50 [22]: 506 nM
- microsomal CLint [23]: 8 µL/min/mg
- microsomal CLint [24]: 18 µL/min/mg
- clearance [25]: 5.67 mL/min/kg
- IC50 [26]: 519 nM
- clearance [27]: 1.67 mL/min/kg
- half-life [28]: 342 min
- Ki [29]: 2.2 nM
- IC50 [30]: 238 nM
- half-life [31]: 78 min
- IC50 [32]: 8 nM
- microsomal CLint [33]: < 5 µL/min/mg
- bioavailability [34]: 100%
- IC50 [35]: 62 nM
- half-life [36]: < 120 min
- Activity (Mus musculus [37]): Non-toxic
- microsomal CLint [38]: 8 µL/min/mg
- microsomal CLint [39]: 62 µL/min/mg
- Papp [40]: 27 ×10⁻⁶ cm/s
- Ki [41]: 4.1 nM
- concentration at 6 h [42]: 15 µM
- IC50 [43]: 165 nM
- IC50 [44]: 363 nM
- ED50 (NIH3T3): 12 mg/kg
- ED90 (NIH3T3): 34 mg/kg
- IC50 [45]: 120 nM
- clearance [46]: 12.2 mL/min/kg
- Vd [47]: 0.56 L/kg
- ED90 (Mus musculus [48]): 30 mg/kg
- Ki [49]: 1.2 nM
- clearance [50]: 2.67 mL/min/kg
- Ki [51]: 2 nM
